Tests used:
[1] = target: T1, LTD4 receptor (guinea pig lung receptors) (Cavia porcellus, UniProt Q2NNR5); assay: Leukotriene Receptor Binding Assay (LTD4 receptor binding, guinea pig lung membrane); conditions: LTD4 binding to guinea pig lung membrane receptors; read-out: LTD4 antagonism: Receptor Binding Assay (IC50)
T1 construct: isolated from guinea pig lung membrane; from tissue; host or cells: guinea pig lung membrane
T1 sequence (Q2NNR5 1-340): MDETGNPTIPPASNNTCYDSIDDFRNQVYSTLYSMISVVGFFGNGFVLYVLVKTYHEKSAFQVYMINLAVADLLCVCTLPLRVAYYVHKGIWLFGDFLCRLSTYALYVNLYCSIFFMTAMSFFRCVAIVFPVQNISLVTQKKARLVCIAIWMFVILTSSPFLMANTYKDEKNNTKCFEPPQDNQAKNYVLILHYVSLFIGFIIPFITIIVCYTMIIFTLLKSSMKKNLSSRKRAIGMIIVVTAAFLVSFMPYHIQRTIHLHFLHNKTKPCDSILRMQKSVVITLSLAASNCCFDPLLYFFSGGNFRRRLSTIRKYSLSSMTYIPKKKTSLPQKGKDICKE
Procedure: Leukotriene Receptor Binding Assay
The in vitro LTD4 receptor binding assay is carried out as follows:
Specific binding of titrated LTD4 to a fixed number of guinea pig lung receptors, isolated from guinea pig lung membrane, is measured in the presence and absence of test compound. The initial screening dose (1×10^-5 M) is considered active if the specific binding of the LTD4 is reduced by 45% or more. Active compounds are tested in a dose-response manner to determine IC50 values.

[2] = target: T2, guinea pig ileum (LTD4-induced contraction) (Cavia porcellus, UniProt Q2NNR5); assay: LTD4 Antagonism in Guinea Pig Ileum; format: cell-based; conditions: pA2, negative log of antagonist concentration required to produce a dose-ratio of 2
T2 construct: Fresh segments of guinea pig ileum; from tissue; host or cells: guinea pig ileum segments
T2 sequence (Q2NNR5 1-340): T1 sequence (Q2NNR5 1-340)
Procedure: LTD4 Antagonism in Guinea Pig Ileum
Fresh segments of guinea pig ileum were suspended in 2 ml. tissue baths containing oxygenated modified Tyrodes solution. After an equilibration period, an agonist dose-response curve was generated by exposing each tissue to 4 different LTD4 doses and measuring the ensuing contractile heights. The ileum segments were washed and rested between exposures to agonist. Following this, the tissues were incubated with a single concentration of test compound and the agonist dose-response procedure was repeated. The dose ratio is a measure of the antagonist's ability to shift the agonist dose-response curve to the right. It is derived as the concentration of agonist necessary to reach a given response level in the presence (A') versus the absence (A) of antagonist. For example, if the test concentration of compound had no effect on the agonist-induced response (A'=A) the dose-ratio would approximate 1. […] One dose-ratio value is determined for each strip of ileum used to test antagonist. […] Schild analysis examines the linearity of the function described by the dose-ratios written as log [(A'/A)-1] versus antagonist concentration. If the linearity is […] and the slope approximates 1, inhibition is considered to be competitive. The pA2 is the negative log of the antagonist concentration required to produce a dose-ratio of 2. […]

[3] = tested on: LTD4-induced bronchoconstriction; assay: In Vivo Bronchoconstriction Assay (LTD4-induced intratracheal insufflation pressure increase); set-up: species or system guinea pig (Hartly); conditions: guinea pig, 2000 units of LTD4 IV
Procedure: The compounds are tested in vivo as follows. Adult male fasted Hartly guinea pigs weighing 300-350 g are pretreated with pyrilamine and indomethacin to block the bronchoconstricture effects of endogenous histamine and the synthesis of thromboxane A2 respectively. Compounds of the invention are administered IV or IG at appropriate times prior to the IV administration of 2000 units of LTD4. Intratracheal pressure is monitored prior to and subsequent to LTD4 in animals anesthetized with pentobarbital and attached to a rodent respirator. Compounds which antagonize the direct component of LTD4 action on respiratory smooth muscle inhibit intratracheal insufflation pressure increases (P< or =0.05) caused by LTD4. FPL 55712 is used as a control.

LTB4 receptor = target: T3, LTB4 receptor (Homo sapiens, UniProt Q15722); assay: LTB4 Receptor Binding Assay (human neutrophils); conditions: 0.6 nano M (3H) LTB4, 0° C., 45 minutes, read-out: LTB4 antagonism: Receptor Binding Assay (IC50)
T3 construct: Neutrophils are purified from venous blood of normal human donors; endogenous in cells; host or cells: human neutrophils from venous blood
T3 sequence (Q15722 whole entry): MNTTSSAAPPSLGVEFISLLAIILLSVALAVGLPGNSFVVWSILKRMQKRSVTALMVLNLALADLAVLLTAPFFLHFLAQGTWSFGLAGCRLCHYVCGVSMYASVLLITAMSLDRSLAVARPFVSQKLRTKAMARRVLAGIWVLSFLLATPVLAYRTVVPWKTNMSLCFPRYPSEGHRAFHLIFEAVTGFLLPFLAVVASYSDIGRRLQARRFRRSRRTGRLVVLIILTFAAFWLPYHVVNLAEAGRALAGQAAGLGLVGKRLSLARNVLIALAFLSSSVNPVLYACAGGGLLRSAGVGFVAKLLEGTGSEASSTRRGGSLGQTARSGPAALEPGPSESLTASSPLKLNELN
Procedure: (§1) Preparation of Human Neutrophils
(§2) Neutrophils are purified from venous blood of normal human donors using standard techniques of dextran sedimentation, centrifugation on Histopaque sterile solution (Sigma) and hypotonic lysis of erythrocytes (Boyum, A., Isolation of Leukocytes From Human Blood: Further Observations. Scand. J. Lab. Clin. Invest. 21 (Suppl. 97): 31, 1968). The purity of isolated neutrophils was ≥95%.
LTB4 Receptor Binding Assay
Neutrophils (4-6×10^6) in 1 ml Hanks' balanced salt solution containing 10 mM HEPES buffer (HBSS), pH 7.4 and […] nordihydroguaiaretic acid were incubated with 0.6 nano M (^3 H) LTB4 in the presence or absence of test compounds. The incubation was carried out at 0° C. for 45 minutes and terminated by adding 5 ml of ice-cold HBSS followed by rapid filtration of incubation mixture under vacuum through GF/C glass fiber filters. The filters were further washed with 10 ml HBSS and radioactivity was determined. […] All data refer to specific binding.

[4] = tested on: human neutrophils (myeloperoxidase release); assay: Human Neutrophil Degranulation Assay; format: cell-based; conditions: table head LTB4 antagonism (method: LTB4 5×10^-8 M or f-met-leu-phe 5×10^-6 M)
Procedure: as §1, §2
Human Neutrophil Degranulation Assay
Neutrophil degranulation was determined by measuring the release of myeloperoxidase activity into the incubation medium. Neutrophils (3×10^6) in 1 ml HBSS solution were preincubated with cytochalasin B(5μg) at 37° C. for 5 minutes, followed by preincubation with test compounds for 7 minutes. […] The supernatants and the pellet-extracts were then assayed spectrophotometrically for myeloperoxidase activity by determining the rate of decomposition of H2 O2 with o-dianisidine as hydrogen donor as described by Renlund, et al. (Renlund, D. G., MacFarlane, J. L., Christensen, R. D., Lynch, R. E., and Rothstein, G., A Quantitive And Sensitive Method for Measurement of Myeloperoxidase, Clinical Research 28:75A, 1980). Myeloperoxidase activity released into the supernatant was expressed as the percent of the average total activity (pellet plus supernatant).

[5] = tested on: LTB4-induced dermal neutrophil chemotaxis (MPO activity); assay: Guinea Pig LTB4-Induced Dermal Chemotaxis; format: in vivo; conditions: Cavia porcellus, method: 35 ng LTB4 intradermal, compound IV or IG, MPO at 4 hours, read-out: LTB4 antagonism: Guinea Pig LTB4 Induced Dermal Chemotaxis (IC50)
Procedure: Guinea Pig LTB4 -Induced Dermal Chemotaxis
Test compound was administered intravenously or intragastrically at various times prior to the injection of leukotriene B4 (LTB4). LTB4 was diluted in phosphate buffered saline (PBS) and 35 ng in 0.2 ml were injected intradermally into the shaven backs of anesthetized guinea pigs. PBS was injected as control. Four hours later, animals were sacrificed, skins removed and stored frozen (-70° C.). Injection sites were removed with a skin punch and mechanically homogenized (Polytron, Brinkmann Instruments). Myeloperoxidase (MPO), a marker enzyme for neutrophils, was extracted by 0.5% hexadecyltrimethylammonium bromide in 50 mM potassium phosphate buffer (pH 6.0), using sonication and freeze-thaw procedures. After centrifugation (40,000×g, 30 minutes), enzyme activities in the supernatants were assayed spectrophotometrically (A460) by measuring the decomposition of hydrogen peroxide with ortho-dianisidine after 15 minutes. […] In guinea pigs the level of MPO activity increased with the amount of LTB4 injected.

## CCCc1c(OCCCSCC2COC3(CCC(CC(=O)O)C3)S2)ccc(C(C)=O)c1O (stereo not drawn) [Example 2, 3-[[[3-(4-acetyl-3-hydroxy-2-propylphenoxy)propyl]thio]methyl]-1-oxa-4-thiaspiro[4.4]nonane-7-acetic acid]
[1]
  IC50: 6.15 µM
[2]
  Kb: 0.0457 µM
[3]
  LTD4 antagonism: In Vivo Bronchoconstriction Assay (% Inhibition at 5 mpk. IV): 94.7%
LTB4 receptor
  IC50: 0.8 µM
[4]
  IC50: 7.3 µM
[5]
  IC50: 8.3 µM
